# Measurements reported in US12031977B2, “Ex vivo system for determining multiple drug-drug transporter interactions and methods of use thereof” (Massachusetts Institute of Technology, priority 2019, dated 2024).
# Counter-ions that a name gives are not always drawn. Like-named read-outs stand apart in the source and are kept apart here. d = 2'-deoxy (DNA); r = 2'-OH (RNA)
# Experiments:
# P-gp, BCRP, and MRP2 [1] = assay: mock screening of model drugs: ex vivo perfusion through porcine small intestine tissue after siRNA knockdown; settings: transporter(s) found by siRNA knockdown perfusion screen
# Description: (§4) Pig tissue was freshly sourced from local slaughter houses (i.e., Leman & Sons, Hilltown Pork, and Blood Farm). Small intestinal tissue was isolated from intact gastrointestinal tract immediately after euthanasia, and dissected longitudinally. A series of washes with PBS supplemented with 5% Antibiotic-Antimycotic solution (Thermo Fisher Scientific) was applied to the tissue until clean under sterile conditions. Then, the tissue was mounted on a device filled with PBS (5% Antibiotic-Antimycotic) solution and cultured at 37° C. incubation with 5% CO2 supplement.
# (§5) siRNA duplex solution was diluted into PBS solution to a final concentration of 1 μM. […] Tissue was cultured for 24 hours before the perfusion assay.
# (§6) The device consists of a bottom reservoir plate and an upper load plate. Both plates were made by laser cutting (Universal Laser Systems VLS6.60) a standard 48-well plate outline and well pattern (Corning 48 well plate, transparent) as well as magnet holes onto an acrylic sheet (McMaster-Carr 1/4″ thickness). Neodymium magnets (K&J Magnetics Cylinder, 3/16″× 3/16″, N52, NI) were press fitted into the magnet holes of both plates. Seal film (Thermo) was applied to seal the bottoms of the wells of the reservoir plate, and PBS solution was loaded into each well. Then, tissue was placed on top of the reservoir plate and the upper load plate was laid on top of the tissue. The magnets were oriented to align and attract the two plates together, ensuring a strong seal between the wells.
# (§7) For ex vivo perfusion study, the detection of each drug is based on either fluorescent or absorbance measurements according to the literature. A 1 mg/mL drug stock was prepared for each drug in PBS (pH 7.4). For water-insoluble drugs, a final concentration of DMSO in PBS was used to solubilize drugs.
# Pgp, BCRP, MRP2 = settings: cited from earlier work
# P-gp, BCRP, or MRP2 = assay: in vivo pharmacokinetic study with oral transport inhibitor pre-treatment; settings: oral gavage, serum, 60 minutes; verapamil for P-gp, imatinib for BCRP, or probenecid for MRP2; p<0.05
# P-gp, BCRP, and MRP2 [2] = tested on: P-gp, BCRP, and MRP2
# Description: as §4, §5, §6, §7
# [3] = target: T1, P-gp, BCRP, MRP2, PEPT1, and MCT1 (Sus scrofa, UniProt Q8MIB3); assay: ex vivo perfusion of known substrates and non-substrates after knockdown of a single transporter; format: in vitro ADME, porcine; settings: other drugs p<0.01
# T1 construct: Small intestinal tissue was isolated from intact gastrointestinal tract immediately after euthanasia; from tissue; host or cells: porcine small intestine explant, single transporter knocked down by siRNA
# T1 sequence (Q8MIB3 1-656): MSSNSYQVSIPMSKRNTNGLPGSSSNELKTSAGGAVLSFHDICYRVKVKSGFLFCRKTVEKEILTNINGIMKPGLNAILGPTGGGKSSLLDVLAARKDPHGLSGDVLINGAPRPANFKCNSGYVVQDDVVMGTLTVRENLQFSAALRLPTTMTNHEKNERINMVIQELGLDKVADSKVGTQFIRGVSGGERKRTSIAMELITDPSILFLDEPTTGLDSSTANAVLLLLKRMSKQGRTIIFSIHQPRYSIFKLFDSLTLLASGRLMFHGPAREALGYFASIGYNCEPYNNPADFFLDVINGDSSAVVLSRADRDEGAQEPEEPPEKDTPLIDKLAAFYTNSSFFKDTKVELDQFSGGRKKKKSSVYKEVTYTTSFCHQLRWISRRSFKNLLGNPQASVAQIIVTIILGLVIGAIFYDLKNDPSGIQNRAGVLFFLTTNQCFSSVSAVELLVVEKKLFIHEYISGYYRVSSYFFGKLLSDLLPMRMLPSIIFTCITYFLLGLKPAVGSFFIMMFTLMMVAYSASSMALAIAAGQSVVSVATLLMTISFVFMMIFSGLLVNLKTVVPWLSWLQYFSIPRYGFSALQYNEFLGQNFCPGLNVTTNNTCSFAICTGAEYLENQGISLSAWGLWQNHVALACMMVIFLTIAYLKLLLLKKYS
# Description: If a molecule is transported by a specific transporter, its diffusion across the tissue should be impacted by selectively down regulating that transporter. To validate that the platform accurately captures this behavior, a total of 23 known transporter-drug relationships was tested.
# cytochrome P450 3A4 = cytochrome P450 3A4 (Homo sapiens, UniProt P08684); settings: cited from earlier work
# Sequence of cytochrome P450 3A4 (P08684 whole entry, the tested form may be a part): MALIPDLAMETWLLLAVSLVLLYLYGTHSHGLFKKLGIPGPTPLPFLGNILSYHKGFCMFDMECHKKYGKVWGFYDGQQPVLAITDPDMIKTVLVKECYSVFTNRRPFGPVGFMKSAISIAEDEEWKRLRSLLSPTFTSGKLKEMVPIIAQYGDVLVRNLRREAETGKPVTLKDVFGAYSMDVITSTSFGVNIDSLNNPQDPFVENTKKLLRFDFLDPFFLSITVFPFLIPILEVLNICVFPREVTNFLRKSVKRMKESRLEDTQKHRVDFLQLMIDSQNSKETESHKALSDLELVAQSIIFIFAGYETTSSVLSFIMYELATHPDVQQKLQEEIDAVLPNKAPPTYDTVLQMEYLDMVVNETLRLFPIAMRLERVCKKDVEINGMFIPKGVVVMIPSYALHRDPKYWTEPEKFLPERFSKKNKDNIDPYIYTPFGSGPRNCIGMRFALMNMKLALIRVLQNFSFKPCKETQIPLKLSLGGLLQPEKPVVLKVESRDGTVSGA
# BCRP [4] = target: T2, BCRP (Sus scrofa, UniProt Q8MIB3); assay: ex vivo perfusion versus gradually reduced BCRP expression; format: in vitro ADME, porcine
# T2 construct: Small intestinal tissue was isolated from intact gastrointestinal tract immediately after euthanasia; from tissue; host or cells: porcine small intestine explant, BCRP level lowered by graded siRNA doses
# T2 sequence (Q8MIB3 1-656): T1 sequence (Q8MIB3 1-656)
# Description: (§1) Next perfusion of drugs that are known to be substrates for multiple transporters was studied. […] To be able to delineate such effects, it was aimed to down regulate multiple transporters simultaneously. Two siRNAs targeting P-gp and BCRP were co-delivered with varying concentrations of each siRNA and noted that expression levels could be fine-tuned in a dose-dependent, linear fashion (Pearson r=0.79 and 0.96, FIG. 5C). Next, how the simultaneous and gradual down regulation of transporter expression impacts drug perfusion was studied. Perfusion of BCRP-specific substrates increased linearly with reduced BCRP-expression (dauricine R=0.7, hymecromone sulfate R=0.81) but were not affected by altering P-gp expression (p>0.28 one-tailed Z test at maximum siPgp concentration; FIG. 5C).
# P-gp [5] = target: T3, P-gp (Sus scrofa, UniProt K7GMM7); assay: ex vivo perfusion versus altered P-gp expression; format: in vitro ADME, porcine
# T3 construct: Small intestinal tissue was isolated from intact gastrointestinal tract immediately after euthanasia; from tissue; host or cells: porcine small intestine explant, P-gp level lowered by graded siRNA doses
# T3 sequence (K7GMM7 1-1248): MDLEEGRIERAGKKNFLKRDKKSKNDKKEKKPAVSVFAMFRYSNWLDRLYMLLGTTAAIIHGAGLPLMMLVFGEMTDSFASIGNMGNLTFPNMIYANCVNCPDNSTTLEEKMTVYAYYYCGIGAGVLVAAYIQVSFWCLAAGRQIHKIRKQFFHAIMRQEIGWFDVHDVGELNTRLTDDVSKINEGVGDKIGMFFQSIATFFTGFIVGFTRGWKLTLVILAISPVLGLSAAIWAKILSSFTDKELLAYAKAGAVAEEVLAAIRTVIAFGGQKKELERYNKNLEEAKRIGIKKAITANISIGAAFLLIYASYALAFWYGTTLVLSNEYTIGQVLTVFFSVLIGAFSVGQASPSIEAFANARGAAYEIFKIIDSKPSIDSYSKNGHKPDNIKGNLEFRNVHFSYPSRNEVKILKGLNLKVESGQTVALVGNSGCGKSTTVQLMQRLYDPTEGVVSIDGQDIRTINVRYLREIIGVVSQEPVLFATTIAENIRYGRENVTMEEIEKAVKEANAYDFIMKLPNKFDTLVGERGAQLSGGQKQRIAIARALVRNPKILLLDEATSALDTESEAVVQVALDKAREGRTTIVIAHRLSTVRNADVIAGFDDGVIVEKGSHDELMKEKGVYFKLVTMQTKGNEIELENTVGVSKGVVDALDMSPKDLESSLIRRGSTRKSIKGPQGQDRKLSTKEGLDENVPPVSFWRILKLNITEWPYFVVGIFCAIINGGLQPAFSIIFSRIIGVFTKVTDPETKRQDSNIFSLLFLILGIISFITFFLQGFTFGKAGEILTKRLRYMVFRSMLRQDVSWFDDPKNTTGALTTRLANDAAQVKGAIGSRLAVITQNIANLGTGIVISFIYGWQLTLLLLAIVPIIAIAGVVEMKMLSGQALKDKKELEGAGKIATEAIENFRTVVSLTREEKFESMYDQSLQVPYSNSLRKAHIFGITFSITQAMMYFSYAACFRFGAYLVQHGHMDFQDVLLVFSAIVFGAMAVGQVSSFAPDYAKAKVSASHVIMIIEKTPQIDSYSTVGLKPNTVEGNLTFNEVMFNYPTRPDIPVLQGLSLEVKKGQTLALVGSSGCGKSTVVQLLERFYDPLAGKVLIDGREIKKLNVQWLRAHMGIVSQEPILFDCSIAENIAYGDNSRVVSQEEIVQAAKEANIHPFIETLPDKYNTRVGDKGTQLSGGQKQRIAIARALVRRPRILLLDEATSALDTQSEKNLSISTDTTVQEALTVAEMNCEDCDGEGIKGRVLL
# Description: as §1
# BCRP and MRP2 = assay: ex vivo perfusion with doxycycline co-treatment
# Description: Four candidate drugs that are known substrates of BCRP and MRP2 were manually selected to study whether they could potentially interact with doxycycline.
# As a first-line test (FIG. 10), ex vivo perfusion experiments were conducted to test for changes in absorption when co-administering the candidates with doxycycline.
# BCRP [6] = assay: siRNA dose versus transporter expression (western-blot); format: cell-based, porcine; settings: co-delivery with varying concentrations, 0 to 25 μM
# Description: (§2) FIGS. 5A-5B show the level of reduction in P-gp and BCRP drug transporter expression depends on the dose of siRNA (0 to 25 μM) administered to the intestinal tissue explant.
# (§3) Tissue was dissected and snap frozen in liquid nitrogen. Every 1 mg of tissue sample was homogenized in 100 μL of RIPA buffer supplied with protease inhibitor (Roche) by Berkin 24-cycle homogenizer. After centrifugation, the protein concentration from the supernatant was determined by BCA assay (Pierce) according to manufactory protocol. A total of 100 μg of protein was loaded on each lane for western-blotting. Blots were imaged with Bio-rad universal Hood Ii Molecular Imager (1312M) with Chemiluminescence method. Contrast setting was set for auto-contrast for all images.
# as §1, with “Perfusion of BCRP-specific substrates increased linearly with reduced BCRP-expression (dauricine R=0.7, hymecromone sulfate R=0.81) but were not affected by altering P-gp expression (p>0.28 one-tailed Z test at maximum siPgp concentration; FIG. 5C).” left out
# P-gp [7] = assay: as above; format: cell-based, porcine; settings: co-delivery with varying concentrations, 0 to 25 μM
# Description: as §2, §3
# as §1, with “Perfusion of BCRP-specific substrates increased linearly with reduced BCRP-expression (dauricine R=0.7, hymecromone sulfate R=0.81) but were not affected by altering P-gp expression (p>0.28 one-tailed Z test at maximum siPgp concentration; FIG. 5C).” left out
# [8] = transporter(s) reported in previous literature for the drug
compound,measurement,setting,value
CCOc1nc2cccc(C(=O)OC(C)OC(=O)OC3CCCCC3)c2n1Cc1ccc(-c2ccccc2-c2nnn[nH]2)cc1 (stereo not shown) [Candesartan cilexetil],Platform Target,"P-gp, BCRP, and MRP2 [1]",no target
same,Literature Target,"Pgp, BCRP, MRP2; [8]",Pgp
NC(=O)N1c2ccccc2C=Cc2ccccc21 [Carbamazepine],Platform Target,"P-gp, BCRP, and MRP2 [1]",Pgp & BCRP
same,relative AUC (drug absorption) with versus without transport inhibitor,"P-gp, BCRP, or MRP2",did not show the expected effect
same,Literature Target,"Pgp, BCRP, MRP2; [8]",Pgp
CN(C)[C@@H]1C(O)=C(C(N)=O)C(=O)[C@@]2(O)C(O)=C3C(=O)c4c(O)ccc(Cl)c4[C@@](C)(O)[C@H]3C[C@@H]12 [Chlorotetracycline],Literature Target,"Pgp, BCRP, MRP2",no target
same,Platform Target,"P-gp, BCRP, and MRP2 [2]",no target
O=c1ccc2ccccc2o1 [Coumarin],Platform Target,"P-gp, BCRP, and MRP2 [1]",Pgp
same,Literature Target,"Pgp, BCRP, MRP2; [8]",Pgp
C[C@H]1c2cccc(O)c2C(=O)C2=C(O)[C@]3(O)C(=O)C(C(N)=O)=C(O)[C@@H](N(C)C)[C@@H]3[C@@H](O)[C@@H]21 [Doxycycline],Platform Target,"P-gp, BCRP, and MRP2 [1]",BCRP & MRP2
same,relative AUC (drug absorption) with versus without transport inhibitor,"P-gp, BCRP, or MRP2",novel BCRP and MRP2 substrate
same,known substrate of transporters,"Pgp, BCRP, MRP2",P-gp and OAT1
same,Literature Target,"Pgp, BCRP, MRP2; [8]",no target
N[C@@H](Cc1ccccc1)C(=O)O [L-phenylalanine],Platform Target,"P-gp, BCRP, and MRP2 [1]",no target
same,Literature Target,"Pgp, BCRP, MRP2; [8]",no target
CN(C)C(=O)C(CCN1CCC(O)(c2ccc(Cl)cc2)CC1)(c1ccccc1)c1ccccc1 [Loperamide],Literature Target,"Pgp, BCRP, MRP2",no target
same,Platform Target,"P-gp, BCRP, and MRP2 [2]",no target
CC(C)(C)NCC(O)COc1cccc2c1CC(O)C(O)C2 (stereo not shown) [Nadolol],Platform Target,"P-gp, BCRP, and MRP2 [1]",BCRP
same,Literature Target,"Pgp, BCRP, MRP2; [8]",no target
NCCC(O)(P(=O)(O)O)P(=O)(O)O [Pamidronate disodium salt hydrate],Platform Target,"P-gp, BCRP, and MRP2 [1]",Pgp
same,Literature Target,"Pgp, BCRP, MRP2; [8]",no target
CN1C(C(=O)Nc2ccccn2)=C(O)c2ccccc2S1(=O)=O [Piroxicam],Platform Target,"P-gp, BCRP, and MRP2 [1]",no target
same,Literature Target,"Pgp, BCRP, MRP2; [8]",no target
CNC(=C[N+](=O)[O-])NCCSCc1ccc(CN(C)C)o1 [Ranitidine],Platform Target,"P-gp, BCRP, and MRP2 [1]",Pgp & BCRP & MRP2
same,Literature Target,"Pgp, BCRP, MRP2; [8]",Pgp & BCRP
CC(C)c1nc(N(C)S(C)(=O)=O)nc(-c2ccc(F)cc2)c1/C=C/[C@@H](O)C[C@@H](O)CC(=O)O [Rosuvastatin],"p, two-tailed T test, of perfusion increase after knockdown",[3],2%
CC(C)(C)NCC(O)c1cc(O)cc(O)c1 (stereo not shown) [Terbutaline],Platform Target,"P-gp, BCRP, and MRP2 [1]",no target
same,Literature Target,"Pgp, BCRP, MRP2; [8]",no target
CC(=O)CC(c1ccccc1)c1c(O)c2ccccc2oc1=O (stereo not shown) [Warfarin],Platform Target,"P-gp, BCRP, and MRP2 [1]",Pgp & BCRP
same,known substrate of transporters,"Pgp, BCRP, MRP2",BCRP and MRP2
same,Literature Target,"Pgp, BCRP, MRP2; [8]",Pgp & BCRP
same,metabolism through cytochrome P450 3A4,cytochrome P450 3A4,metabolized through cytochrome P450 3A4
COc1cc2c(cc1OC)[C@@H](Cc1ccc(Oc3cc(C[C@@H]4c5cc(OC)c(OC)cc5CCN4C)ccc3O)cc1)N(C)CC2 [dauricine],"R, perfusion increase versus reduced BCRP-expression",BCRP [4]; pig,0.7
same,perfusion on altering P-gp expression,P-gp [5],not affected
C[C@H]1O[C@@H](O[C@H]2[C@@H](O)C[C@H](O[C@H]3[C@@H](O)C[C@H](O[C@H]4CC[C@@]5(C)[C@H](CC[C@@H]6[C@@H]5C[C@@H](O)[C@]5(C)[C@@H](C7=CC(=O)OC7)CC[C@]65O)C4)O[C@@H]3C)O[C@@H]2C)C[C@H](O)[C@@H]1O [digoxin],known substrate of transporters,"Pgp, BCRP, MRP2",BCRP and MRP2
same,metabolism through cytochrome P450 3A4,cytochrome P450 3A4,not cytochrome substrates
same,perfusion / absorption upon co-treatment with doxycycline,BCRP and MRP2,increased absorption
CC[C@@H](C(N)=O)N1CCCC1=O [levetiracetam],known substrate of transporters,"Pgp, BCRP, MRP2",BCRP and MRP2
same,metabolism through cytochrome P450 3A4,cytochrome P450 3A4,not cytochrome substrates
same,perfusion / absorption upon co-treatment with doxycycline,BCRP and MRP2,increased absorption
C=CC[C@@H]1/C=C(\C)C[C@H](C)C[C@H](OC)[C@H]2O[C@@](O)(C(=O)C(=O)N3CCCC[C@H]3C(=O)O[C@H](/C(C)=C/[C@@H]3CC[C@@H](O)[C@H](OC)C3)[C@H](C)[C@@H](O)CC1=O)[C@H](C)C[C@@H]2OC [tacrolimus],known substrate of transporters,"Pgp, BCRP, MRP2",BCRP and MRP2
same,metabolism through cytochrome P450 3A4,cytochrome P450 3A4,metabolized through cytochrome P450 3A4
same,perfusion / absorption upon co-treatment with doxycycline,"BCRP and MRP2; ex vivo, LC-MS/MS, p<0.05",increased absorption
Ergotamine D-tartrate,Platform Target,"P-gp, BCRP, and MRP2 [1]",Pgp & BCRP & MRP2
same,Literature Target,"Pgp, BCRP, MRP2; [8]",Pgp
hymecromone sulfate,"R, perfusion increase versus reduced BCRP-expression","BCRP [4]; BCRP-specific substrates, linear relation, FIG. 5C",0.81
same,perfusion on altering P-gp expression,"P-gp [5]; BCRP-specific substrates, p>0.28 one-tailed Z test at maximum siPgp concentration",not affected
"siRNA targeting BCRP: siRNA duplex, sense SEQ ID NO: 95, antisense SEQ ID NO: 96 (sense ACUUCUUCCUGGACGUCAUUATT; antisense UAAUGACGUCCAGGAAGAAGUTT; chemistry not given here)","Pearson r, expression level versus siRNA dose",BCRP [6],0.96
"siRNA targeting P-gp: siRNA duplex, sense SEQ ID NO: 91, antisense SEQ ID NO: 92 (sense AUGACAGUGUACGCCUAUUAUTT; antisense AUAAUAGGCGUACACUGUCAUTT; sugars from the 5' end r21 d2, backbone not given here)","Pearson r, expression level versus siRNA dose",P-gp [7],0.79
